Consider 5 molecules from publication PMC12150283, “Synthesis of new Ag(I) and Cd(II) hydrozanomide-based complexes with antibacterial and anticancer properties” (RSC Advances, 2025).

The test system of test [1] is glioblastoma LN-229 cells. Put plainly: MTT cell viability assay. The class given is cell-based, human. The conditions noted are these: 48 hours of incubation. As for the experimental part: (§1) The glioblastoma cell lines LN-229 and U87 and the reference human normal skin fibroblast BJ were obtained from the American Type Culture Collection (ATCC). Cells were grown as monolayers when cultured in cell culture flasks and cultured in Dulbecco's Modified Eagle Medium (DMEM) – LN-229 and Eagle's Minimum Essential Medium (EMEM) – U87 and BJ, supplemented with 10% (v/v) fetal bovine serum, penicillin (10 000 U mL^−1), streptomycin (10 mg mL^−1) and amphotericin B (250 μg mL^−1). The cells were incubated at 37 °C, 5% CO2 atmosphere. The cells were maintained in the logarithmic growth phase by regular passage at 80% confluence.
(§2) The cytotoxicity of the tested compounds was evaluated against both human glioblastoma LN-229 and U-87 as well as normal BJ cell lines. The cells were plated in 96-well culture plates (2 × 10^4 well) and after 24 h incubation the cells were treated with the tested compounds in the concentration range 1–50 μM. The cells were cultured for the next 48 h. The cytotoxicity of the compounds was evaluated using the MTT colorimetric method as previously described.[28,29] IC50 values were determined using the AAT Bioquest IC50 calculator as the concentration of compounds capable of reducing cell viability by 50%. The experiment was performed in triplicate for each concentration. To examine the cytotoxic effect of compounds on cell morphology, cells were examined under an inverted phase contrast microscope Nikon Eclipse Ti with NIS Element software (Tokyo, Japan).

In another test the test system is glioblastoma U87 cells. Put plainly: MTT cell viability assay. The test is classed as cell-based, human. To be noted: 48 hours of incubation. The protocol: as §1, §2
The test system of test [2] is normal skin fibroblast BJ cells. Put plainly: MTT cell viability assay. The conditions noted are these: BJ normal fibroblasts, 48 hours of incubation. The class given is cell-based, human. The protocol: as §1, §2
Test [3] has as its system Staphylococcus aureus ATCC 25923. Set-up: method as in earlier work. To be noted: pure ligands, S. aureus ATCC 25923; previous study ref 29; cited from earlier work.
The test system of test [4] is Staphylococcus epidermidis ATCC 12228. More on the design: method as in earlier work. The conditions noted are these: pure ligands, S. epidermidis ATCC 12228; previous study ref 29; cited from earlier work.
The subject of test [5] is Enterococcus faecalis ATCC 29212. Set-up: method as in earlier work. The conditions noted are these: pure ligands, E. faecalis ATCC 29212; previous study ref 29; cited from earlier work.
The test system of test [6] is Salmonella typhimurium ATCC 14028. Set-up: method as in earlier work. To be noted: pure ligands, S. typhimurium ATCC 14028; previous study ref 29; cited from earlier work.
In test [7] the test system is Bacillus cereus ŁOCK 0807. The test is described as follows: MIC determination. The class given is cell-based. The conditions noted are these: Bacillus cereus ŁOCK 0807; 18 h. The protocol:
(§3) The antibacterial activity of tested samples was assessed against both gram-positive bacteria (Staphylococcus aureus ATCC 25923, Staphylococcus aureus ATCC 6538, Staphylococcus epidermidis ATCC 12228, Enterococcus faecalis ATCC 29212, Listeria monocytogenes ATCC 19115, Bacillus subtilis ATCC 6633, Bacillus cereus ATCC 10876) and gram-negative bacteria (Escherichia coli ATCC 10530, Salmonella typhimurium ATCC 14028). Antibacterial properties were evaluated using both the dilution method (employing DMSO and 96-well plates) and the diffusion-well method (using Mueller Hinton Agar, Merck, Germany).
(§4) The minimum inhibitory concentrations (MICs) of the tested samples were evaluated against a panel of reference microorganisms obtained from the American Type Culture Collection (ATCC), including Gram-negative bacteria (Escherichia coli ATCC 10530, Salmonella typhimurium ATCC 14028), and Gram-positive bacteria (Staphylococcus aureus ATCC 25923, Staphylococcus aureus ATCC 6538, Staphylococcus epidermidis ATCC 12228, Enterococcus faecalis ATCC 29212, Listeria monocytogenes ATCC 19115, Bacillus subtilis ATCC 6633), and one strain (Bacillus cereus ŁOCK 0807) obtained from the Pure Culture of Industrial Microorganisms of the Institute of Fermentation Technology and Microbiology ŁOCK 105 (Łódź, Poland).
(§5) The microorganism cultures with a density of 1.5 × 10^8 CFU mL^−1 (corresponding to a McFarland standard of 0.5) were plated on Mueller–Hinton Agar (Merck, Germany) following the procedures recommended by the European Committee on Antimicrobial Susceptibility Testing (EUCAST).[47] Wells measuring 10 mm in diameter were cut into the medium. The tested compounds were dissolved in a DMSO solution, which was recommended due to their chemical structures. Subsequently, 100 μL of prepared solutions containing the tested compounds at concentrations ranging from x μg mL^−1 to x μg mL^−1 were added to each well. The plates were incubated at 30 °C (for Bacillus subtilis and Bacillus cereus) or 37 °C (for other bacteria) for 18 hours. After incubation, the minimum inhibitory concentration (MIC value) was determined (the lowest concentration of the tested compounds that prevents bacterial growth) and expressed in μg mL^−1. The experiment was conducted in three independent replicates. Ciprofloxacin (Sigma Aldrich, Saint Louis, MO, USA) was used as a reference antimicrobial agent against Gram-negative bacteria, while vancomycin (Sigma Aldrich, Saint Louis, MO, USA) was used as a reference antimicrobial agent against Gram-positive bacteria.

For test [8], the system named is Bacillus subtilis ATCC 6633. The test is described as follows: MIC determination. The test is classed as cell-based. To be noted: 18 h. As for the experimental part:
as §3, §4, §5

For test [9], the system named is Enterococcus faecalis ATCC 29212. Put plainly: MIC determination. The conditions noted are these: E. faecalis ATCC 29212; 18 h. The class given is cell-based. The protocol: as §3, §4, §5
Test [10] relates to Escherichia coli ATCC 10530. The test is described as follows: MIC determination. The class given is cell-based. To be noted: Escherichia coli ATCC 10530, 18 h. As for the experimental part: as §3, §4, §5
Test [11] has as its system Listeria monocytogenes ATCC 19115. Put plainly: MIC determination. The test is classed as cell-based. To be noted: Listeria monocytogenes ATCC 19115, 18 h. The protocol:
as §3, §4, §5

The subject of test [12] is Salmonella typhimurium ATCC 14028. The test is described as follows: MIC determination. The test is classed as cell-based. The conditions noted are these: S. typhimurium ATCC 14028; 18 h. The protocol: as §3, §4, §5
In test [13] the test system is Staphylococcus aureus ATCC 25923. Put plainly: MIC determination. The test is classed as cell-based. The conditions noted are these: S. aureus ATCC 25923, 18 h. As for the experimental part:
as §3, §4, §5

Test [14] concerns Staphylococcus aureus ATCC 6538. Put plainly: MIC determination. The test is classed as cell-based. To be noted: S. aureus ATCC 6538; 18 h. As for the experimental part:
as §3, §4, §5

Test [15] deals with Staphylococcus epidermidis ATCC 12228. Put plainly: MIC determination. To be noted: S. epidermidis ATCC 12228; 18 h. The class given is cell-based. The protocol:
as §3, §4, §5

The subject of another test is S. aureus ATCC 25923. Put plainly: Diffusion-well method, inhibition zones. The test is classed as cell-based, Staphylococcus aureus. The conditions noted are these: 500 µg/mL, wells 10 mm. As for the experimental part: as §3
(§6) 24 hour bacterial cultures with a density of 1–2 × 10^8 CFU mL^−1 were plated (0.1 mL) on Mueller–Hinton Agar (Merck, Germany). Subsequently, wells with a diameter of 10 mm were cut out from and filled with 100 μL of the tested compound at a concentration of 10–500 μg mL^−1 (diluted in DMSO). After an 18-hour incubation at either 30 °C (for Bacillus ssp.) or 37 °C (for other tested microorganisms), the inhibition zones around the wells were measured, and the results were expressed in millimetres (Table S9 ^†).

Another test relates to S. aureus ATCC 6538. Put plainly: Diffusion-well method, inhibition zones. The class given is cell-based, Staphylococcus aureus. To be noted: 500 µg/mL, wells 10 mm. The protocol:
as §3, §6

Test [16] relates to S. epidermidis ATCC 12228. Put plainly: Diffusion-well method, inhibition zones. The class given is cell-based, Staphylococcus epidermidis. To be noted: 500 µg/mL, wells 10 mm. As for the experimental part: as §3, §6
The next test relates to E. faecalis ATCC 29212. The test is described as follows: Diffusion-well method, inhibition zones. The class given is cell-based, Enterococcus faecalis. The conditions noted are these: 500 µg/mL, wells 10 mm. As for the experimental part: as §3, §6
A further test deals with B. cereus ŁOCK 0807. The test is described as follows: Diffusion-well method, inhibition zones. The class given is cell-based, Bacillus cereus. The conditions noted are these: 500 µg/mL, wells 10 mm.
For test [17], the system named is L. monocytogenes ATCC 19115. Put plainly: Diffusion-well method, inhibition zones. The class given is cell-based, Listeria monocytogenes. To be noted: 500 µg/mL, wells 10 mm. As for the experimental part:
as §3, §6

The subject of a further test is B. subtilis ATCC 6633. The test is described as follows: Diffusion-well method, inhibition zones. The class given is cell-based, Bacillus subtilis. To be noted: 500 µg/mL, wells 10 mm. As for the experimental part: as §3, §6
For another test, the system named is E. coli ATCC 10530. The test is described as follows: Diffusion-well method, inhibition zones. The class given is cell-based, Escherichia coli. The conditions noted are these: 500 µg/mL, wells 10 mm. As for the experimental part:
as §3, §6

Test [18] deals with S. Typhimurium ATCC 14028. The test is described as follows: Diffusion-well method, inhibition zones. The test is classed as cell-based, Salmonella typhimurium. To be noted: 500 µg/mL, wells 10 mm. The protocol:
as §3, §6

SMILES strings stand for the structures. Where two headings read alike, the source gives them in different places.

`N/C(=N\N=C\c1ccc([N+](=O)[O-])cc1)c1cccc(N2CCCC2)n1` [Complex L4, (4-nitrobenzylidene)-6-(pyrrolidin-1-yl)picolinohydrazonamide]: the half-maximal inhibitory concentration (IC50) in [1] (Homo sapiens) was 48.1 ± 6.09 µM; in the test with glioblastoma U87 cells (Homo sapiens, U-87 MG), over 50 µM; in test [2] (Homo sapiens) it was over 50 µM. Moreover, the minimum inhibitory concentration (MIC) in test [3], in [4], in [5] and in test [6] was over 500 µg/mL throughout.
In the case of `NC(=NN=Cc1ccc([N+](=O)[O-])cc1)c1cccc(N2CCCC2)n1.NC(=NN=Cc1ccc([N+](=O)[O-])cc1)c1cccc(N2CCCC2)n1.O=[N+]([O-])[O-].[Ag+]` [Complex 4, AgL4NO3], the minimal inhibitory concentration (MIC) in test [7] was 50 µg/mL; in test [8], 50 µg/mL; in test [9], 50 µg/mL; in test [10] it was at most 10 µg/mL; in [10] (listed as 4) it was under 10 µg/mL; in test [11] it was at most 10 µg/mL. The minimal inhibitory concentration (MIC) in test [11] (listed as 4) was 10 µg/mL; in [12] it was 100 µg/mL; in test [13] it was at most 10 µg/mL; in test [13] (listed as 4), under 10 µg/mL; in test [14] it was 100 µg/mL; in test [15] it was 50 µg/mL. The Inhibition zone with S. aureus ATCC 25923 was determined as 21 mm; with S. aureus ATCC 6538 it was 16 mm; in [16], 16 mm; in the test on E. faecalis ATCC 29212, 15 mm; in the test with B. cereus ŁOCK 0807 it was 17 mm; in test [17], 19 mm. Besides, the Inhibition zone in the test on B. subtilis ATCC 6633 was 18 mm; in the test with E. coli ATCC 10530 it was 20 mm; in test [18], 17 mm. Also, the IC50 in test [1] was over 50 µM; in the test on glioblastoma U87 cells, 1.22 ± 0.34 µM; in test [2], over 50 µM.
In the case of `N/C(=N\N=C\c1ccccc1)c1cncc(N2CCOCC2)n1` [Complex L5, (benzylidene)-6-morpholinopyrazine-2-carbohydrazonamide], the concentration for half-maximal inhibition (IC50) in [1] (Homo sapiens) is over 50 µM; in the test on glioblastoma U87 cells (Homo sapiens, U-87 MG), over 50 µM; in [2] (Homo sapiens) it was over 50 µM. Besides, the MIC in test [3], in test [4], in test [5] and in [6] was over 500 µg/mL in each case.
As to `NC(=NN=Cc1ccccc1)c1cncc(Cl)n1` [Complex L1, N′-(benzylidene)-6-chloropyrazine-2-carbohydrazonamide], the IC50 in test [1] (Homo sapiens) is over 50 µM; in the test on glioblastoma U87 cells (Homo sapiens, U-87 MG), over 50 µM; in [2] (Homo sapiens), over 50 µM. For the same molecule, the minimal inhibitory concentration (MIC) in test [3] was 500 µg/mL; in test [4] it was 500 µg/mL; in [5], 250 µg/mL; in test [6] it was over 500 µg/mL.
Consider `NC(=NN=Cc1ccccc1)c1cncc(N2CCOCC2)n1.O.O=[N+]([O-])[O-].[Ag+]` [Complex 5, AgL5NO3 × H2O], for which the MIC in test [7] is 50 µg/mL; in test [8] it was 50 µg/mL; in test [9], 50 µg/mL; in test [10] it was over 500 µg/mL; in test [11], 10 µg/mL; in test [12] it was 50 µg/mL. In addition, the figures for the MIC in test [13], in [14] and in [15] were 50 µg/mL, 10 µg/mL and under 10 µg/mL, respectively. Moreover, the Inhibition zone was 19 mm in the test on S. aureus ATCC 25923; 17 mm in the test on S. aureus ATCC 6538; 18 mm in [16]; 17 mm in the test on E. faecalis ATCC 29212; 19 mm in the test with B. cereus ŁOCK 0807; 19 mm in test [17]. Besides, the figures for the Inhibition zone (in the test on B. subtilis ATCC 6633; in [18]) were 18 mm and 17 mm, respectively. Moreover, the concentration for half-maximal inhibition (IC50) was over 50 µM in [1], 49.7 ± 3.11 µM in the test on glioblastoma U87 cells and over 50 µM in test [2].
